The record followed here is US12376589B2, “Chryseobacterium insect inhibitory microbial compositions and methods of making and using” (priority 2021, dated 2025).

The subject of data set [1] is Drosophila suzukii (spotted wing Drosophila). Briefly: Drosophila suzukii diet incorporation assay. Type of data set: in vivo. The conditions noted are these: 100, 500, 1000 μg/mL. Here is the method:
During the development of embodiments of the technology described herein, experiments were conducted to assess the activity of 3,3′-diindolylmethane against Drosophila suzukii. […] A1X=100 μg/mL; A5X=500 μg/mL; A10X=1000 μg/mL. Each concentration was tested with 10 vials containing 20 D. suzukii L2 larvae. “Dpi” indicates days post infestation (0 dpi is the day of egg-laying).

For data set [2], the system named is Culex quinquefasciatus larvae. Description: whole plant or invertebrate. The conditions noted are these: read-out: LC50 (representative curve fit). From the text: (§1) Measuring potency of 3,3-diindolylmethane and 3-((1H-indol-2-yl)methyl)-1H-indole. 3,3′-Diindolylmethane (also called arundine, CAS number: 1968-05-4) was purchased from MILLIPORESIGMA (cat #74601) and Cayman Chemical (catalog #15927). 3-((1H-indol-2-yl)methyl)-1H-indole (CAS number: 114648-66-7) was purchased from Ambeed (catalog #A735658). Compounds were resuspended in dimethyl sulfoxide (DMSO). For collecting data to construct dose curves for 3,3-diindolylmethane and 3-((1H-indol-2-yl)methyl)-1H-indole, a series of twenty 1:2 dilutions was made to test in bioassays, establish a dose curve, and determine the LC50 value.
Culex quinquefasciatus bioassays with compounds. First or second instar Culex quinquefasciatus larvae were purchased from Benzon Research, Inc. (Carlisle, PA). Assays were performed with third instar larvae. Larvae were washed with sterile water before transfer to 24-well assay plates containing 1 mL of sterile water in each well. Each well contained 5 larvae. Compound dilutions were made in DMSO, topped with sterile NYSM broth and applied to each assay well. The final DMSO concentration was 1% in each assay well. Larvae mortality was scored for each well at 24-hour timepoints after application.

In another data set the test system is Aedes aegypti larvae. Briefly: whole plant or invertebrate. The note with it: for LC50: Aedes aegypti.
Text: as §1
Aedes aegypti bioassays with compounds. Assays were performed using second or third instar larvae, with biological replication. Larvae were washed with sterile water before transfer to 24-well assay plates containing 1 mL of sterile water in each well. Each well contained 5 larvae. Compound dilutions were made in DMSO, topped with sterile NYSM broth and applied to each assay well. The final DMSO concentration was 1% in each assay well. Larval mortality was scored for each well at 24-hour timepoints after application.
Heat treatments. Samples were heated in 1.5-mL microfuge tubes in a standard laboratory heat block at the indicated temperature and time.
The EtOAc fraction was redissolved in MeOH and subjected to chromatographic fractionation (FIG. 11C) using preparative reversed-phase HPLC (Phenomenex Luna phenylhexyl, 21.2 mm×15 cm, 5 μm, 20 mL/min, isocratic elution with 80% H2O/MeCN for 2 min followed by gradient elution from 80% H2O/MeCN to 100% MeCN over 30 min then isocratic elution with 100% MeCN for 5 min) to yield 30 fractions. The preparative HPLC fractions (at concentrations of 200 μg/mL and 20 μg/mL) were tested against Aedes aegypti.

The subject of data set [3] is Anticarsia gemmatalis (velvetbean caterpillar). Description: whole plant or invertebrate. Here is the method: (§2) Lepidopteran bioassays. Lepidopteran bioassays were performed at Benzon Research, Inc. (Carlisle, PA). 3,3′-Diindolylmethane samples were solubilized in dimethyl sulfoxide (DMSO). Samples were then frozen and shipped to Benzon. Samples were resuspended with 9× volumes of water before application to the assay well. The final DMSO concentration in the assay well was 2%. PLU6 extract samples were prepared as a series of three 1:5 dilutions in dimethyl sulfoxide. Samples were then further diluted with fresh NYSM broth, then shipped to Benzon Research for use in a diet overlay assay. Assays were performed using neonate larvae of 14 different Lepidopteran species (Anticarsia gemmatalis (velvetbean caterpillar), Diatraea grandiosella (southwestern corn borer), Diatraea saccharalis (sugarcane borer), Ostrinia nubilalis (European corn borer), Trichoplusia ni (cabbage looper), Chrysodeixis includens (soybean looper), Spodoptera exigua (beet armyworm), Spodoptera frugiperda (fall armyworm), Spodoptera eridania (southern armyworm), Chloridia virescens (tobacco budworm), Helicoverpa zea (corn earworm), Agrotis ipsilon (black cutworm), Cydia pomonella (codling moth), Plutella xylostella (diamondback moth) with an N=16 or N=32, apart from P. xylostella, for which third instar larvae were used. A diet-surface overlay format was used, in which 500 microliters of diet was placed in each well. One hundred microliters of sample was then pipetted into each well and allowed to dry. A DMSO control was included with each set of samples. An internal Btk (Bacillus thurengiensis kurstaki) standard at a concentration of 1000 ppm was used as a positive control, and water was used as a negative control.

Data set [4] has as its system Spodoptera exigua (beet armyworm). Briefly: whole plant or invertebrate. Here is the method: as §2
Data set [5] deals with Trichoplusia ni (cabbage looper). The note with it: for Mortality, Trichoplusia ni (cabbage looper): 7 days diet overlay, neonates, mean of three experiments (each N=16), Abbott's formula; for Mortalities (%) after 7 days of treatment (Abbott’s Correction), CL: Trichoplusia ni (cabbage looper). As to the method:
as §2
Experiments were conducted in which mortality of lepidopteran larvae was measured after 7 days of diet overlay treatment with 3,3′-diindolylmethane at the concentrations indicated in Table 3. Mean mortalities and standard deviations were calculated from three independent experiments (each N=16). For each experiment, mortalities were corrected using Abbott's formula (Abbott (1987) “Method of computing the effectiveness of an insecticide” J. American Mosquito Control Association 2: 302-03, incorporated herein by reference). For all species except Plutella xylostella, neonates were used. For P. xylostella, third instar larvae were used. The positive control used was 1000 ppm of Bacillus thuringiensis kurstaki.

The mark [6] stands for this setting: Anticarsia gemmatalis, 168 h, read-out: Mortalities (%) after 7 days of treatment (Abbott’s Correction), VBC.
The mark [7] stands for this setting: Spodoptera exigua, 168 h, read-out: Mortalities (%) after 7 days of treatment (Abbott’s Correction), BAW.

≈ marks a conversion by molar mass, not a printed value. Entries after “also recorded” stand apart in the source; their conditions may differ. Where two headings read alike, the source gives them in different places.

`c1ccc2c(Cc3c[nH]c4ccccc34)c[nH]c2c1` [3,3′-diindolylmethane, 3,3′-Diindolylmethane]: the “egg-to-adult survival” value in data set [1] is recorded as “not affected”. In addition, the “insecticidal activity against spotted wing Drosophila” value in data set [1] is “did not display insecticidal activity”. Besides, the “eclosion rate” value in data set [1] (L2 larvae, one-way ANOVA) is “not affected”. In addition, the “pupation rate” value in data set [1] (L2 larvae, one-way ANOVA) is “not affected”. For the same compound, the LC50 in data set [2] was 7.5 µg/mL (≈ 30.4 µM); in the data set with Aedes aegypti larvae (read-out: LC50 (representative curve fit)), 10.2 µg/mL (≈ 41.4 µM); with Aedes aegypti larvae (read-out: mean LC50), 7.5 ± 3 µg/mL (≈ 30.4 µM). For the same compound, in the data set on Aedes aegypti larvae (in vivo), the “activity against Aedes aegypti larvae” value is listed as “exhibited larvicidal activity”. In addition, the mortality at 156.25 µg/mL in data set [3] (setting [6]) was 100%; in data set [4] (setting [7]), 71.9%. For the same compound, the mortality at 625 µg/mL in data set [3] (setting [6]) came to 70%; in data set [4] (setting [7]) it was 93.8%. In addition, the mortality at 2500 µg/mL in data set [3] (setting [6]) was 96.7%; in data set [4] (setting [7]), 71.9%. Besides, the “activity against Anticarsia gemmatalis” value in data set [3] (diet overlay) was “active; also recorded: dose-dependent activity”. Moreover, in data set [4] (diet overlay), the “activity against Spodoptera exigua” value is “active; also recorded: dose-dependent activity”. For the same compound, the “Mortality, Trichoplusia ni (cabbage looper)” value turned out to be 3.00% in data set [5] (39.06 μg/mL), 22.95% in data set [5] (156.25 μg/mL), 44.60% in data set [5] (625 μg/mL) and 93.25% in data set [5] (2500 μg/mL). In addition, the “Mortalities (%) after 7 days of treatment (Abbott’s Correction), CL” value was found to be 41.4% in data set [5] (156.25 μg/mL, diet overlay); 72.4% in data set [5] (625 μg/mL, diet overlay); 93.1% in data set [5] (2500 μg/mL, diet overlay). Moreover, in data set [5] (diet overlay), the “activity against Trichoplusia ni” value was “active; also recorded: dose-dependent activity”.
